Source: patent publication US20100254928A1, “NOVEL COMPOSITION CONTAINING OZONIZED SURFACTANT” (priority 2007, published 2010)
Where “and” joins values, the source holds several entries; their conditions need not be identical. Equal entries are not always repeated.

Tests used:
[1] = Temporal change in oxidizing property (iodine titration method); assay type: physicochemical; conditions: 1% aqueous solution, 25° C., 700 days
Source text: After deaerating the obtained aqueous ozonized surfactant solution to remove dissolved ozone gas by helium purging, the oxidizing property of the aqueous ozonized surfactant solution can be determined by the iodine titration method (see Non Patent Literature 1). Whether or not the aqueous ozonized surfactant solution maintains a function as a surfactant can be evaluated by checking whether or not frothing, which is a characteristic of surfactants, occurs when the solution is agitated or vibrated.
Meanwhile, oxygen was supplied from an oxygen cylinder into an ozonizer (ozonizer GR-RB made by Sumitomo Precision Products Co., Ltd.) at an oxygen flow rate of 0.3 L/min to ozonize the oxygen to produce ozone gas. Then, the ozone gas was dissolved in the above-described aqueous solution in a dissolving module (SEK model made by ERC Technology), and the aqueous solution was circulated at a flow rate of 1 L/min. […] Further, in 30 minutes, the concentration increased to 25 ppm (see FIG. 2). After deaerating the aqueous solution that had undergone about 30-minute ozone treatment to remove dissolved ozone gas by helium purging, oxidizing property of the aqueous solution was determined by the iodine titration method. As a result, the aqueous solution had oxidizing property, and frothing, which is a characteristic of surfactants, was observed. The results confirmed that ozonized Tween 80 had been produced. Further, a temporal change in the oxidizing property of the aqueous solution was determined by the iodine titration method at 25° C. for 20 days. As a result, the percentage of oxidizing property measured after 20 days to that measured just after preparation was 109%.
The solution A was diluted to a 1% aqueous solution, and a temporal change in the oxidizing property of the aqueous solution was determined by the iodine titration method at 25° C. for 700 days. As a result, the percentage of oxidizing property measured after 700 days to that measured just after preparation was 101%.

[2] = tested on: Sprague-Dawley female rats; experiment: Single dose oral toxicity test; assay type: in vivo; design: key to General conditions, 3 hours after administration / General conditions, 1 hour after administration / General conditions, 2 hours after administration: D: diarrhea; LS: loose stool; RF: reddish feces; DL: decrease in locomotor activity; *: the result was observed at 4 hours after administration; conditions: for rats that developed symptoms on the administration day: transient, resolved by the 2nd day
Experimental: In order to roughly determine the lethal dose of the ozonized surfactant used for the present invention, an acute single dose oral toxicity test was performed according to “OECD Guideline for Testing of Chemicals, Acute Oral Toxicity-Acute Toxic Class Method”, Revised Guideline 423, adopted on Mar. 22, 1996 and revised on Dec. 17, 2001) by administering the solution A described in Example 4 to 12 Sprague-Dawley [Ctr: CD (SD), SPF ] female rats. Rats were divided into 4 groups each consisting of 3 rats. For each rat, an appropriate liquid volume was calculated based on individual body weight so that the solution A in an amount equivalent to 300 mg/kg of the ozonized surfactant was administered to 2 groups (6 rats) and the solution in an amount equivalent to 2000 mg/kg was administered to the other 2 groups (6 rats), with the use of a gastric tube for rats. (These groups will be hereinafter referred to as 300 mg/kg administration groups and 2000 mg/kg administration groups, respectively.) Counting the administration day as the 1st day, general conditions of the rats were observed until the 15th day, and the number of dead individuals was counted. The general conditions of all the animals were observed once before administration, intermittently for 1 hour after administration, and subsequently about every hour until 3 hours (of some rats until 4 hours) after administration. Since the 2nd day, the observation was repeated daily.
In the table, D, LS, RF and DL mean diarrhea, loose stool, reddish feces and decrease in locomotor activity, respectively.

[3] = tested on: Trichophyton mentagrophytes; experiment: Minimum inhibitory concentration test; assay type: cell-based; conditions: 96 h, 25° C., 1 × 10^5/mL
Source text: (§1) In order to check the antimicrobial and antifungal performance of the ozonized surfactant, bacteriostatic and bactericidal effects of the ozonized surfactant against five kinds of microorganisms were examined. The five kinds of target microorganisms were Staphylococcus aureus as a prokaryotic gram-positive bacterium, Escherichia coli as a prokaryotic gram-negative bacterium, Saccharomyces cerevisiae and Trichophyton mentagrophytes as fungi which are eukaryotic microorganisms, and Cladosporium cladosporioides. One loopful of each strain was inoculated in a medium optimum for the strain, and cultured under culture conditions optimum for the strain to prepare a cell suspension for inoculation.
(§2) The solution A obtained in Example 4 was placed in test tubes, and was then diluted with sterilized water 2-, 4-, 8-, 16-, 32-, 64-, 128-, 256-, and 512-fold to prepare 10 levels of diluted ozonized surfactant solutions. Into L-shaped test tubes for a biophotorecorder, 9 mL of each medium shown in Table 1 was dispensed and sterilized by steam. Then, 1 mL of each of the 10 levels of diluted ozonized surfactant solutions was added aseptically to the L-shaped test tubes to prepare 10 mL of 10-, 20-, 40-, 80-, 160-, 320-, 640-, 1280-, 2560-, and 5120-fold diluted solutions of the solution A (hereinafter, referred to as a “graduated dilution series to be tested”). Into the graduated dilution series to be tested, 0.1 mL of the cell suspension for inoculation was inoculated (the initial number of cells of each microorganism is shown in Table 1). The L-shaped test tubes into which the cell suspension had been inoculated were set in a biophotorecorder (made by Advantec Toyo Kaisha, Ltd.) and subjected to shaking culture (30 rpm) under conditions shown in Table 1. The test tubes to be used were sterilized by dry heat (165° C. for 1 hour), and the media, sterilized water, and tools were sterilized by steam in an autoclave (121° C. for 15 minutes). In the following tests, they were sterilized in the same manner.
(§3) Another graduated dilution series was prepared between the temporary minimum inhibitory concentration and the concentration of the ozonized surfactant nearest to the temporary minimum inhibitory concentration, at which turbidity occurred. Then, the same operation as described above was again carried out. […] This MIC test against these five kinds of microorganisms was carried out also using, as a control, the surfactant solution before ozone treatment.

[4] = tested on: Cladosporium cladosporioides; experiment: Minimum inhibitory concentration test; assay type: cell-based; conditions: 96 h, 25° C., 1 × 10^5/mL
Source text: as §1, §2, §3

Saccharomyces cerevisiae = experiment: Minimum inhibitory concentration test; assay type: cell-based; conditions: 48 h, 28° C., 1 × 10^6/mL
Source text: as §1, §2, §3

Staphylococcus aureus = experiment: Minimum inhibitory concentration test; assay type: cell-based; conditions: 24 h, 37° C., 1 × 10^7/mL
Source text: as §1, §2, §3

[5] = 300 mg/kg administration group (6 rats)
[6] = 2000 mg/kg administration group (6 rats)
[7] = 2000 mg/kg oral, per animal, — = no symptom, listed as solution A

Ozonized POE (10 EO) oleyl ether [Example 4]
percentage of oxidizing property measured after 700 days to that measured just after preparation [1]: 101% | Death until the 15th day [2, 5]: Death was not found | rats that developed symptoms on the administration day [2, 5]: 1 rat | General conditions, 3 hours after administration ([2]; 300 mg/kg oral, per animal, — = no symptom): LS* | Decrease in locomotor activity (number of animals) ([2]; 2-15 days, all 12 rats): 0 | Diarrhea or loose stool (number of animals) ([2]; 2-15 days, all 12 rats): 0 | Reddish feces (number of animals) ([2]; 2-15 days, all 12 rats): 0 | Death until the 15th day [2, 6]: Death was not found | rats that developed symptoms on the administration day [2, 6]: 5 rats | General conditions, 1 hour after administration [2, 7]: D, DL and D, RF and D (2×) | General conditions, 2 hours after administration [2, 7]: D | General conditions, 3 hours after administration [2, 7]: D* and LS and D (2×) | Body weight transition during the observation period ([2]; 300 and 2000 mg/kg, 15 days): favorable | Decrease in locomotor activity (number of animals) ([2]; 1 hour, all 12 rats): 2 | Reddish feces (number of animals) ([2]; 1 hour, all 12 rats): 1 | Diarrhea or loose stool (number of animals) ([2]; 1 hour, all 12 rats (300 and 2000 mg/kg)): 4 | Decrease in locomotor activity (number of animals) ([2]; 2 hours, all 12 rats): 0 | Diarrhea or loose stool (number of animals) ([2]; 2 hours, all 12 rats): 3 | Reddish feces (number of animals) ([2]; 2 hours, all 12 rats): 0 | Decrease in locomotor activity (number of animals) ([2]; 3 hours, all 12 rats): 0 | Diarrhea or loose stool (number of animals) ([2]; 3 hours, all 12 rats): 5 | Reddish feces (number of animals) ([2]; 3 hours, all 12 rats): 0 | LD50 cut-off value ([2]; oral, rat): infinite | acute toxicity classification of the GHS ([2]; oral, rat): Category 5 or does not correspond to any of the acute toxicity categories | Minimum inhibitory concentration [3]: 0.03% | Minimum inhibitory concentration [4]: 0.09% | Minimum inhibitory concentration (Saccharomyces cerevisiae): 0.02% | Minimum inhibitory concentration (Staphylococcus aureus): 0.11%
